Assay results from PubChem BioAssay (NCI).
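Five compound concentrations were applied to cells in 96-well plates for 48 hours; endpoints were derived by simple linear interpolation of the resulting dose-response curve. GI50 marks 50% less growth. The concentration for full growth arrest is given as TGI.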

Tests used:
Assay in all cases: NCI anticancer screen, dose series, 48 h
U251 CNS = system: U251 CNS
MALME-3M melanoma = system: MALME-3M melanoma
MDA-N = system: MDA-N
DU-145 prostate = system: DU-145 prostate
SNB-75 CNS = system: SNB-75 CNS
NCI-H23 lung = system: NCI-H23 lung
BT-549 breast = system: BT-549 breast
HCT-116 colon = system: HCT-116 colon
SF-295 CNS = system: SF-295 CNS
SNB-19 CNS = system: SNB-19 CNS

Row | SMILES | TGI (U251 CNS) [µM] | TGI (MALME-3M melanoma) [µM] | TGI (MDA-N) [µM] | TGI (DU-145 prostate) [µM] | TGI (SNB-75 CNS) [µM] | TGI (NCI-H23 lung) [µM] | TGI (BT-549 breast) [µM] | TGI (HCT-116 colon) [µM] | TGI (SF-295 CNS) [µM] | TGI (SNB-19 CNS) [µM] | GI50 (U251 CNS) [µM] | GI50 (MALME-3M melanoma) [µM] | GI50 (SNB-19 CNS) [µM] | GI50 (DU-145 prostate) [µM] | GI50 (SNB-75 CNS) [µM] | GI50 (NCI-H23 lung) [µM] | GI50 (SF-295 CNS) [µM] | GI50 (BT-549 breast) [µM]
1 | Nc1cc(CO)cc(Nc2c3ccccc3nc3ccccc23)c1 | 28.3 | 31.8 | 35.1 | 73.1 | 34.5 | 30.1 | 27.7 | 28.5 | 25.3 | – | – | – | – | – | – | – | – | –
2 | CCOP(=O)(OCC)C(c1ccc(F)cc1)N(C(=O)NC(F)(F)F)c1ccc(F)cc1 (centres undefined) | > 100 | > 100 | > 100 | > 100 | > 100 | > 100 | – | > 100 | > 100 | > 100 | – | – | – | – | – | – | – | –
3 | CC1[C@@]2(O[C@@H]3C=C4C5CCC6Cc7nc8c(nc7C[C@@]6(C)C5C[C@H](O)[C@@]4(C)[C@]13O)CC1CCc3c(cc4c5c3C(O)C[C@H]5[C@@H](C)C3(O4)OC(C)(C)CC3O)[C@]1(C)C8)O[C@@](C)(CO)C[C@@H]2O (some centres undefined) | 0.586 | 2.22 | – | – | 0.372 | – | – | > 3.72 | 0.182 | > 3.72 | – | – | – | – | – | – | – | –
4 | O=S1(=O)OCCOS(=O)(=O)C1(F)Cc1ccccc1 | > 100 | > 100 | > 100 | > 100 | > 100 | > 100 | – | > 100 | > 100 | > 100 | – | – | – | – | – | – | – | –
5 | O=C1c2c(c3c4cc(F)ccc4oc3c3[nH]c4ccccc4c23)C(=O)N1O | 13.4 | 6.46 | – | > 100 | 4.55 | 8.45 | – | – | 9 | 24.9 | 0.904 | 1.37 | 1.79 | 2.15 | 0.0769 | 1.65 | 2.33 | –
6 | CN1C/C(=C\c2cccs2)C2=NN(c3ccccc3)C(c3cccs3)C2C1 (centres undefined) | > 100 | > 51.1 | 3.99 | > 58.2 | – | > 100 | > 100 | > 35.7 | > 80.3 | > 100 | – | – | – | – | – | – | – | –
7 | O=C1/C(=C/c2cccc([N+](=O)[O-])c2)N=C(c2ccccc2)N1c1nc2ccc(Sc3ccccc3)cc2[nH]1 | > 100 | > 100 | 33.3 | – | > 100 | > 100 | > 100 | > 100 | > 100 | > 100 | – | – | – | – | – | – | – | –
8 | CC1=C[P+](c2ccccc2)(c2ccccc2)c2ccccc2O1 | > 100 | 61 | – | > 100 | > 100 | 24.1 | > 100 | 16.9 | 38.9 | > 100 | – | – | – | – | – | – | – | –
9 | COc1ccc(-c2c(C#N)c(N)[nH]c(=S)c2C#N)cc1 | > 100 | 86 | 28.5 | > 100 | – | > 100 | 85.4 | 93.8 | > 100 | > 100 | – | – | – | – | – | – | – | –
10 | CC(O)C(CO)NC(=O)C1CSSCC(NC(=O)C(N)Cc2ccccc2)C(=O)NC(Cc2ccccc2)C(=O)NC(Cc2c[nH]c3ccccc23)C(=O)NC(CCCCN)C(=O)NC(C(C)O)C(=O)N1 (centres undefined) | > 100 | > 100 | > 100 | > 100 | > 100 | > 100 | – | > 100 | > 100 | > 100 | – | – | – | – | – | – | – | –
11 | Cc1cc2ncn(CC(=O)O)c2cc1C | > 100 | > 100 | – | > 100 | > 100 | > 100 | > 100 | > 100 | > 100 | > 100 | – | – | – | – | – | – | – | –
12 | O=C(CC(C(=O)c1ccsc1)c1cccs1)c1ccccc1 (centres undefined) | > 100 | – | > 100 | > 100 | > 100 | 93.3 | – | > 100 | > 100 | – | – | – | – | – | – | – | – | –
13 | N=c1oc2ccc3ccccc3c2cc1-c1nc2ccccc2c(=O)[nH]1 | > 100 | > 100 | > 100 | > 100 | 19.6 | – | 68.5 | > 100 | > 100 | > 100 | – | – | – | – | – | – | – | –
14 | Cc1[nH]c(=O)nc(N/N=C/c2c3ccccc3c(Cl)c3ccccc23)c1C(=O)Nc1ccc(Cl)cc1 | > 100 | > 100 | > 100 | > 100 | > 100 | > 100 | > 100 | > 100 | – | > 100 | – | – | – | – | – | – | – | –
15 | CCC1(O)C(=O)OCc2c1cc1n(c2=O)Cc2cc3cc4c(cc3nc2-1)OCO4 (centres undefined) | 0.183 | 0.807 | – | > 100 | 0.0369 | < 0.0109 | > 100 | 0.108 | 0.198 | 2.17 | – | – | – | – | – | – | – | < 0.01
16 | C(=N\NC1=NCCCCN1)/c1ccc2ccccc2c1 | 58.6 | 30.4 | – | > 100 | > 100 | > 100 | > 100 | > 100 | 46.3 | > 100 | – | – | – | – | – | – | – | –
17 | CC1=C(C)C(=O)OC(C(C)(O)C2(O)CC3OC34C3CC(O)C56OC5C=CC(=O)C6(C)C3CCC42C)C1 (centres undefined) | 7.34 | 3.53 | 15.5 | 15.8 | 20.3 | 8.64 | 3.11 | – | 15.2 | 19.9 | – | – | – | – | – | – | – | –
18 | O=[N+]([O-])c1ccc(C[P+]2(c3ccccc3)CCCCC2)cc1 (tested in a mixture with another compound) | > 100 | > 100 | – | – | > 100 | > 100 | – | – | > 100 | > 100 | – | – | – | – | – | – | – | –
19 | COc1cc(/C=C/C(=O)CC(=O)/C=C/c2cc(C)c(O)c(OC)c2)cc(C)c1O | > 100 | > 100 | – | > 100 | > 100 | > 100 | > 100 | > 100 | > 100 | > 100 | – | – | – | – | – | – | – | –
20 | CCC1(CC)C(=O)NC(=O)NC1=S | > 100 | > 100 | – | – | > 100 | > 100 | – | > 100 | > 100 | > 100 | – | – | – | – | – | – | – | –
21 | C/C(Cc1ccc2c(c1)OCO2)=N\N=c1\sc2ccccc2n1C | > 100 | > 100 | > 100 | > 100 | – | > 100 | > 100 | > 100 | > 100 | > 100 | – | – | – | – | – | – | – | –
22 | N=C1OC(CN2CCN(c3ccccc3)CC2)CN1C(=O)Nc1ccccc1 (centres undefined) | > 100 | > 100 | > 100 | > 100 | – | > 100 | > 100 | > 100 | > 100 | > 100 | – | – | – | – | – | – | – | –
